Measured values published in publication PMC5442763, “Selective Inhibition of ADAM17 Efficiently Mediates Glycoprotein Ibα Retention During Ex Vivo Generation of Human Induced Pluripotent Stem Cell‐Derived Platelets” (Stem Cells Translational Medicine, 2016).

Experiments:
[1] = tested on: human iPSC-derived MKs and platelets; assay: Generation of MKs and platelets from human iPSC-derived HPCs at 37°C, flow cytometry; format: cell-based
Method: (§1) Directed differentiation to MKs and platelets from iPSCs and ESCs was performed as described previously. Briefly, 3 × 10^4 HPCs derived from iPS‐sacs on C3H10T1/2 feeder cells in the presence of 20 ng/ml vascular endothelial growth factor were transferred on day 14 of culture onto C3H10T1/2 feeder cells in differentiation medium supplemented with 50 ng/ml stem cell factor, 100 ng/ml thrombopoietin, 25 U/ml heparin sodium, and test compounds at 24°C or 37°C. The medium was refreshed every 3 days, and nonadherent cells were collected and analyzed on days 22–24.
(§2) Flow cytometric analysis was performed as previously described. Briefly, iPSC‐ and ESC‐derived MKs on days 22–24 and platelets in their supernatants were stained with combinations of antibodies for 30 minutes on ice (for MKs) or at room temperature (for platelets). Samples of MKs/platelets were then washed, diluted with staining medium (phosphate‐buffered saline containing 3% fetal bovine serum), and analyzed using flow cytometry (FACSAria; BD). Trucount tubes (BD) were used to quantify the MKs and platelets.

human MMP8 = biological target: T1, human MMP8 (Homo sapiens, UniProt P22894); assay: MMP and ADAM activity assay (fluorescence-based): MMP8; format: biochemical; details: cell-free fluorescence assay
T1 construct: purchased EMD Millipore
Excerpt: (§3) Human ADAM17, ADAM10, and MMP17 were from R&D Systems (Minneapolis, MN, http://www.rndsystems.com), and human MMP1, MMP2, MMP3, MMP8, MMP9, MMP13, and MMP14 were from EMD Millipore. MMP1, MMP2, MMP8, MMP9, MMP13, and MMP17 were activated using p‐aminophenylmercuric acetate (Sigma‐Aldrich) before testing. Fluorogenic substrates for measuring activity of ADAM10 and ADAM17 [Nma‐[…](Dnp)r‐NH2, based on the cleavage site of TNF‐α]; MMP1, MMP9, MMP13, and MMP14 [Dnp‐P‐Cha‐GC(Me)HAK(N‐Me‐Abz)‐NH2]; MMP3 [MOCAc‐RPKPVE‐Nva‐WRK(Dnp)‐NH2]; and MMP2, MMP8, and MMP17 [MOCAc‐PLGL‐A2pr(Dnp)‐AR‐NH2] were all provided by Peptide Institute (Osaka, Japan, https://www.peptide.co.jp/en) and used as substrates. In addition, inhibitory activities were measured using LC/MS/MS with a GPIbα‐based substrate peptide ([…]), a C terminal‐based standard peptide ([…]), and an internal standard peptide ([…]). These peptides were synthetized by Scrum (Tokyo, Japan, http://www.scrum‐net.co.jp/english/top_en.htm).

human MMP1 = biological target: T2, human MMP1 (Homo sapiens, UniProt P03956); assay: MMP and ADAM activity assay (fluorescence-based): MMP1; format: biochemical; details: cell-free fluorescence assay
T2 construct: purchased EMD Millipore
Excerpt: as §3

human MMP2 = biological target: T3, human MMP2 (Homo sapiens, UniProt P08253); assay: MMP and ADAM activity assay (fluorescence-based): MMP2; format: biochemical; details: cell-free fluorescence assay
T3 construct: purchased EMD Millipore
Excerpt: as §3

human MMP14 = biological target: T4, human MMP14 (Homo sapiens, UniProt P50281); assay: MMP and ADAM activity assay (fluorescence-based): MMP14; format: biochemical; details: cell-free fluorescence assay
T4 construct: purchased EMD Millipore
Method: as §3, with “KP‐457 and GM‐6001 were tested for their ability to inhibit MMP‐ and ADAM‐catalyzed cleavage of substrates in a fluorescence‐based assay. Human” for “Human”

[2] = Good laboratory practice genotoxicity studies; details: data not shown
Human ADAM17 [3] = biological target: T5, Human ADAM17 (Homo sapiens, UniProt P78536); assay: MMP and ADAM activity assay (fluorescence-based, cell-free): ADAM17; format: biochemical
T5 construct: purchased R&D Systems
Excerpt: as §3

Human ADAM17 [4] = biological target: T5, Human ADAM17; assay: Cleavage of GPIbα-based substrate peptide by ADAM17 (LC/MS/MS); format: biochemical; details: GPIbα-based substrate peptide, LC/MS/MS; read-out: IC50, inhibition of C-terminal cleavage of the GPIbα sequence by ADAM17
Excerpt: as §3
(1 picture or pasted object on this page, not shown here)

dogs = assay: Good laboratory practice systemic toxicity study in dogs; format: in vivo; details: intravenously once a day for 4 weeks, doses up to 3 mg/kg (maximal dose tested), data not shown
[5] = tested on: platelets derived from human ESCs; assay: GPIbα retention in platelets derived from human ESCs; format: cell-based; details: KP-457 15 µmol/L
Method: as §1, §2
Fig. S4. The inhibitory effect of KP-457 on GPIbα shedding in platelets derived from human
ESCs and immortalized megakaryocyte progenitor cell lines (imMKCLs).
Percentages of GPIbα-expressing CD41a+ platelets produced from human ESCs (A) and […]

human MMP17 = biological target: T6, human MMP17 (Homo sapiens, UniProt Q9ULZ9); assay: MMP and ADAM activity assay (fluorescence-based): MMP17; format: biochemical; details: cell-free fluorescence assay
T6 construct: purchased R&D Systems
Method: as §3, with “KP‐457 and GM‐6001 were tested for their ability to inhibit MMP‐ and ADAM‐catalyzed cleavage of substrates in a fluorescence‐based assay. Human” for “Human”

human MMP13 = biological target: T7, human MMP13 (Homo sapiens, UniProt P45452); assay: MMP and ADAM activity assay (fluorescence-based): MMP13; format: biochemical; details: cell-free fluorescence assay
T7 construct: purchased EMD Millipore
Excerpt: as §3

human MMP3 = biological target: T8, human MMP3 (Homo sapiens, UniProt P08254); assay: MMP and ADAM activity assay (fluorescence-based): MMP3; format: biochemical; details: cell-free fluorescence assay
T8 construct: purchased EMD Millipore
Method: as §3, with “KP‐457 and GM‐6001 were tested for their ability to inhibit MMP‐ and ADAM‐catalyzed cleavage of substrates in a fluorescence‐based assay. Human” for “Human”

[6] = KP-457 15 μmol/l, GM-6001 50 μmol/l, p38 MAP kinase inhibitor 10 μmol/l

T5 sequence (P78536 215-824): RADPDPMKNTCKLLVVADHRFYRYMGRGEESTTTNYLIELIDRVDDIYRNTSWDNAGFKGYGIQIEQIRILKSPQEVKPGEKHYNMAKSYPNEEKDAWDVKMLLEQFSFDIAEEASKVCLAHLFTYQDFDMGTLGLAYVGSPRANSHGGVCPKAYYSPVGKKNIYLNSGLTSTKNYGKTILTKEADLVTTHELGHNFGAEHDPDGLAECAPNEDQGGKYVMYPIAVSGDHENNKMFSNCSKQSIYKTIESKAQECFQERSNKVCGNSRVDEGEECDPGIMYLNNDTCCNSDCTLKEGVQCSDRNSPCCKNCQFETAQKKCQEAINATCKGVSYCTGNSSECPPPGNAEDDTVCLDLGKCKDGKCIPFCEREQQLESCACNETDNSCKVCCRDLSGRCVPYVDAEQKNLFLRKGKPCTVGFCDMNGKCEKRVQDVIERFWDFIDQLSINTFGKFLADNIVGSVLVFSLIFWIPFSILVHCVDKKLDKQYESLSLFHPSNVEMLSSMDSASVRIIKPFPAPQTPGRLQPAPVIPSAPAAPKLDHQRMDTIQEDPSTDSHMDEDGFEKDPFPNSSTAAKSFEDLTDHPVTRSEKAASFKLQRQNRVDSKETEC
T6 sequence (Q9ULZ9 126-565 limits assumed): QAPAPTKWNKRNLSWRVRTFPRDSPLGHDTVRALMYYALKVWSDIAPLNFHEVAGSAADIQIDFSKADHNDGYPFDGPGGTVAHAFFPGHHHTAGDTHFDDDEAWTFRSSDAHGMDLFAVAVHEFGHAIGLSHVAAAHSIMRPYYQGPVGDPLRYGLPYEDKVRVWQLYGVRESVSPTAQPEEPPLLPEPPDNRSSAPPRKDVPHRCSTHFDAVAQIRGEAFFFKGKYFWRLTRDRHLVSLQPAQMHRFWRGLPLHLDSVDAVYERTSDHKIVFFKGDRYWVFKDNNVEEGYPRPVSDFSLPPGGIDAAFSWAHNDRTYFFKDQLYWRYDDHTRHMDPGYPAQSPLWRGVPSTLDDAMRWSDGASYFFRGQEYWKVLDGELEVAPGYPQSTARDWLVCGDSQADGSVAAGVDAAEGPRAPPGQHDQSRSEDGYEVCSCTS
T3 sequence (P08253 110-660): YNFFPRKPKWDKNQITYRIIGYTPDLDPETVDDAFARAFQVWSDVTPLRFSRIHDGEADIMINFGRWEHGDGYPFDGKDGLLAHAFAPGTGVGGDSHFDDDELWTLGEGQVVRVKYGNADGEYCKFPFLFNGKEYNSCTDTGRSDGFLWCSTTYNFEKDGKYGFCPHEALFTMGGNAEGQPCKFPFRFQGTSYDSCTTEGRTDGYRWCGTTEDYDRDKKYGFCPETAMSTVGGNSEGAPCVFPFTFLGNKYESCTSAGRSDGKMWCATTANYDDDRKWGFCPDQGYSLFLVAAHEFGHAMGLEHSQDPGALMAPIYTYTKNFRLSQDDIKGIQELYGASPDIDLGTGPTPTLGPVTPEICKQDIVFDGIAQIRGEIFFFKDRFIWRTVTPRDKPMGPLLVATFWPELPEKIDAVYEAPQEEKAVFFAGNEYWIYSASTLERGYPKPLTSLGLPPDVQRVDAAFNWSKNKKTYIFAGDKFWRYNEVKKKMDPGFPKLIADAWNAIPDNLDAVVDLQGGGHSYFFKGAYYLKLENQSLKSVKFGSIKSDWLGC
T2 sequence (P03956 100-469): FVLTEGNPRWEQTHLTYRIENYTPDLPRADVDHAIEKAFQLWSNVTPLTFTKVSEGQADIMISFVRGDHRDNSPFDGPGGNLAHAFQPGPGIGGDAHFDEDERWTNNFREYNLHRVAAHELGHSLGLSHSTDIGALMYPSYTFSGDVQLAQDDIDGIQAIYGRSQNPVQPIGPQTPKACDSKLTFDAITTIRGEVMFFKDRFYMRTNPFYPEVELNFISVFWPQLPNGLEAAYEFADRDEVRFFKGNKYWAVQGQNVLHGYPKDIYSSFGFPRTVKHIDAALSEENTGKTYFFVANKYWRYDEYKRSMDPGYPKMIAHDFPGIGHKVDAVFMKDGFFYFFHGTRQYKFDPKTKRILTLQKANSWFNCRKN
T1 sequence (P22894 101-467): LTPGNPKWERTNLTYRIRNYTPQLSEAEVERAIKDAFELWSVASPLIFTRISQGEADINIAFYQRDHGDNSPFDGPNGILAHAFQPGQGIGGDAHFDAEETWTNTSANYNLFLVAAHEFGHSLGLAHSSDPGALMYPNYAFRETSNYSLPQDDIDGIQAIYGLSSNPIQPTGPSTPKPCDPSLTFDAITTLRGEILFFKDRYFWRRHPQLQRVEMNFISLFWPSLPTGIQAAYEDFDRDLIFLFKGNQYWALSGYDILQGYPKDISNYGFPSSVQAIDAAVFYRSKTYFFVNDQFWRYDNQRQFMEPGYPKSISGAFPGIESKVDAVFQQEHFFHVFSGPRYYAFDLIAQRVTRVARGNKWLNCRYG
T8 sequence (P08254 100-477): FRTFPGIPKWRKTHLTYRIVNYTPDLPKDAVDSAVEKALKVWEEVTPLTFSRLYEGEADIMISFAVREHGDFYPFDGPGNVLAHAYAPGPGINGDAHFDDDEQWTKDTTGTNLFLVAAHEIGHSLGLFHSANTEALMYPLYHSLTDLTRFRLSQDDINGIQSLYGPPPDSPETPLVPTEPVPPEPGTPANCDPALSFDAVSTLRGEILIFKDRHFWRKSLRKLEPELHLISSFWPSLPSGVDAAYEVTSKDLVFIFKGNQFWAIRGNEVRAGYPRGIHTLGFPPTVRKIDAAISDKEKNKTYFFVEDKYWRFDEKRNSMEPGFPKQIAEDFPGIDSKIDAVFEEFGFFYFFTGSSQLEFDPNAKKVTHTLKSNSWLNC

## CC#CCOc1ccc(S(=O)(=O)CC(c2ccc(CNS(C)(=O)=O)cc2)N(O)C=O)cc1 (stereo not shown) [KP-457, N‐(2‐{[4‐(but‐2‐yn‐1‐yloxy)phenyl]sulfonyl}‐1‐[4‐(methylsulfonamidomethyl)phenyl]ethyl)‐N‐hydroxyformamide]
[1]; [6]
  number of CD41a+ total iPSC platelets: no significant effect
  retention of GPIbα expression on CD41a+ iPSC-derived platelets: able to retain
[1]; KP-457 15 μmol/l, GM-6001 50 μmol/l, p38 MAP kinase inhibitor 10 μmol/l, MK differentiation and platelet production phases
  number of CD41a+ iPSC-derived MKs: no significant effect
[1]; KP-457 15 μmol/l, representative FACS plot, vehicle 48.3%
  GPIbα+ population in human iPSC-derived CD41a+ platelets: 80.7%
[1]; days 21–23 or 24, KP-457 15, BIRB796 10, U0126 10, BMS345541 10, Z-VAD 10, Ro31-8220 3 μmol/l
  GPIbα retention by iPSC-derived platelets, inhibitor only during platelet production phase: more effectively sustained
Human MMP8
  IC50: 2200 nM
Human MMP1
  IC50: > 100000 nM
Human MMP2
  IC50: 717 nM
Human MMP14
  IC50: 2140 nM
[2]
  genotoxicity: neither genotoxicity nor systemic toxicity
Human ADAM17 [3]; cell-free enzyme assay
  potency relative to GM-6001, inhibition of cleavage of the TNF-α sequence: 10 times
Human ADAM17 [3]; cell-free enzyme assays
  selectivity for ADAM17 over other MMPs and ADAM10: > 50 times
Human ADAM17 [3]; cell-free fluorescence assay, TNF-α cleavage site substrate
  IC50: 11.1 nM
Human ADAM17 [4]
  IC50: 10.6 nM
dogs
  systemic toxicity: neither genotoxicity nor systemic toxicity
[5]
  GPIbα retention in platelets derived from human ESCs: consistently observed
Human MMP17
  IC50: 7100 nM
Human MMP13
  IC50: 930 nM
Human MMP3
  IC50: 9760 nM
